# Assay results as given in patent US9381186B2, “Substituted chroman derivatives, medicaments and use in therapy” (MEI Pharma, Inc., priority 2004, dated 2016).
# Like-named read-outs stand apart in the source and are kept apart here.
# How the values were obtained:
# CP70 = experiment: MTT proliferation assay, ovarian CP70; assay type: cell-based
# CCRF-CEM = experiment: MTT proliferation assay, leukaemia (ALL) CCRF-CEM; assay type: cell-based; conditions: Homo sapiens, Table 2.2
# Protocol: (§1) An cultures were supplemented with 10% FCS (CSL, Australia), penicillin (100 U/ml), streptomycin ([…]), L-glutamine (2 mM) and sodium bicarbonate (1.2 g/L), and cultured at 37° C. in a humidified atmosphere of 5% CO2. All cell lines were purchased from ATCC (Maryland, USA) except where noted.
# (§2) IC50 values were determined for each cell line. Cells were seeded in 96-well plates at an appropriate cell density as determined from growth kinetics analysis and cultured for 5 days in the absence and presence of the test compounds. Cell proliferation was assessed after the addition of 20 μl of 3-4,5 dimethylthiazol-2,5-diphenyl tetrazolium bromide (MTT, 2.5 mg/ml in PBS, Sigma) for 3-4 hrs at 37° C. according to manufacturer's instructions. IC50 values were calculated from semi-log plots of % of control proliferation on the y-axis against log dose on the x-axis.
# HPAC = experiment: MTT proliferation assay, pancreatic HPAC; assay type: cell-based; conditions: Homo sapiens, Table 2.2
# HTB-138 = experiment: MTT proliferation assay, glioma HTB-138; assay type: cell-based
# Protocol: as §1, §2
# [1] = test system: murine macrophages (RAW 264.7) stimulated with LPS; experiment: Eicosanoid synthesis in LPS-stimulated RAW 264.7 macrophages; assay type: cell-based, mouse; conditions: test compound 10 μM, LPS 50 ng/ml, 16 hrs; negative = inhibition
# Protocol: The mouse macrophage cell line RAW 264.7 was cultured in DMEM supplemented with foetal calf serum (FCS), 2 mM glutamine and 50 U/ml penicillin/streptomycin. Subconfluent cells were detached from the flask by gentle scraping and 24-well plates seeded at 5×10^5 cells per well and allowed to adhere for 1 hr. Cells were then treated either test compound at a concentration of 10 μM (in 0.025% DMSO) or vehicle alone, and incubated for 1 hr. LPS 50 ng/ml (LPS—Sigma-Aldrich) was then added. After incubation for 16 hrs, culture media was collected and stored at −80° C. for ecosanoid measurements using enzyme immunometric assays (PGE2 and TXB2—Cayman Chemical).
# NCI-H460 = experiment: MTT proliferation assay, NSC lung NCI-H460; assay type: cell-based; conditions: Homo sapiens; NSC Lung NCI-H460, Table 2.2
# Protocol: as §1, §2
# PC3 = experiment: MTT proliferation assay, prostate PC3; assay type: cell-based; conditions: Homo sapiens, PC-3
# Protocol: as §1, §2
# MDA-MB-468 = experiment: MTT proliferation assay, breast MDA-MB-468; assay type: cell-based; conditions: Homo sapiens
# MM200 = experiment: MTT proliferation assay, melanoma MM200; assay type: cell-based
# HT-29 = experiment: MTT proliferation assay, colorectal HT-29; assay type: cell-based; conditions: Homo sapiens; Colorectal HT-29, Table 2.2; read-out: IC50
# Protocol: as §1, §2
# RK (rabbit kidney) cells = experiment: Cytotoxicity (MTT proliferation assay) against rabbit kidney cells; assay type: cell-based; conditions: Oryctolagus cuniculus; rabbit kidney cells
# Protocol: (§3) The normal cell line NFF (neonatal foreskin fibroblasts) was a gift from Dr. Peter Parsons (Queensland Institute of Medical Research). RK (rabbit kidney) cells were obtained from Miller Whalley (Macquarie University). Both cell lines were cultured in RPMI supplemented with 10% FCS (CSL, Australia), penicillin (100 U/ml), streptomycin ([…]), L-glutamine (2 mM) and sodium bicarbonate (1.2 g/L), and cultured at 37° C. in a humidified atmosphere of 5% CO2
# as §2
# [2] = Oral pharmacokinetics in female BALB/c mice; assay type: in vivo, mouse; conditions: female, BALB/c, mouse, serum, 50 mg/kg; oral; read-out: t1/2
# Protocol: Compound No. 1 labelled above was prepared as homogenous suspensions in 1% CMC (m:v, water). The formulation was delivered orally by gavage to female BALB/c mice at a dosage of 50 mg/kg. Three animals were allocated to each timepoint (15 min, 30 min, 1 hr, 4 hr and 24 hr). At each respective timepoint, animals were euthanised by cervical dislocation and blood collected. The concentration of free compound was analysed by mass spectroscopy.
# NCI-H23 = experiment: MTT proliferation assay, lung NCI-H23; assay type: cell-based; conditions: Homo sapiens; Lung NCI-H23, Table 2.1; read-out: cytoxicity (IC50)
# Protocol: as §1, §2
# [3] = test system: NFF (neonatal foreskin fibroblasts); experiment: Cytotoxicity (MTT proliferation assay) against neonatal foreskin fibroblasts; assay type: cell-based, Human
# Protocol: as §3, §2
# [4] = Ovarian CP70, Table 2.2, read-out: IC50
# [5] = Glioma HTB-138, Table 2.2, read-out: IC50
# [6] = Prostate PC3, Table 2.2, read-out: IC50
# [7] = Breast MDA-MB-468, Table 2.2, read-out: IC50
# [8] = Melanoma MM200, Table 2.2, read-out: IC50
SMILES,IC50 (CP70; [4]),IC50 (CCRF-CEM),IC50 (HPAC),IC50 (HTB-138; [5]),Percentage change in PGE2 synthesis compared with vehicle [1],Percentage change in TXB2 synthesis compared with vehicle [1],IC50 (NCI-H460),IC50 (PC3; [6]),IC50 (MDA-MB-468; [7]),IC50 (MM200; [8]),IC50 (HT-29),further results
COc1cccc(C2(O)c3ccc(O)cc3OCC2c2ccc(O)cc2)c1 (stereo not shown) [Compound 15],65 ± 1.9 µM,81.8 µM,> 100 µM,> 100 µM,−38.3%,−58.4%,> 100 µM,> 100 µM,–,–,–,–
COc1ccc(C2COc3cc(OC)ccc3C2(O)c2ccc(OC)cc2)cc1 (stereo not shown) [Compound 12],> 100 µM,> 100 µM,86.3 ± 67 µM,47.7 µM,−68.3%,−34.0%,–,32.8 ± 4.7 µM,63.5 ± 4.6 µM,> 100 µM,49.5 ± 32 µM,–
"Oc1ccc(C2=Cc3ccc(O)cc3OC2)cc1 [Phenoxodiol, reference compound]",–,–,–,–,–,–,–,–,–,–,–,"IC50 (CP70; read-out: cytoxicity (IC50)): 11.1 ± 23.6 µM; IC50 (HTB-138; Glioma HTB-138, Table 2.1, read-out: cytoxicity (IC50)): 20.4 ± 17.5 µM; IC50 (RK (rabbit kidney) cells): > 150 µM; IC50 (MDA-MB-468; MDA-MB-468, read-out: cytoxicity (IC50)): 8.9 ± 4.8 µM; half-life [2]: ~30 min; IC50 (NCI-H23): 8.3 ± 6.7 µM; IC50 (MM200; read-out: cytoxicity (IC50)): 6.2 ± 4.5 µM; IC50 (PC3; Prostate PC3, Table 2.1, read-out: cytoxicity (IC50)): 9.1 ± 8 µM"
COc1ccc(C2(O)c3ccc(O)cc3OCC2c2ccc(O)cc2)cc1 (stereo not shown) [Compound 11],52.7 ± 13 µM,95.4 µM,> 100 µM,86.3 µM,−51.0%,−53.2%,> 100 µM,> 100 µM,–,60.4 ± 9.2 µM,–,–
COc1ccc(C2=C(c3ccc(O)cc3)COc3cc(O)ccc32)cc1 [Compound 27],22.4 ± 0.7 µM,16.6 µM,27.6 ± 5.3 µM,33.7 µM,−84.2%,−86.1%,31.6 ± 4.9 µM,28 ± 7.3 µM,–,14.6 µM,–,–
COc1ccc(C2=C(c3ccc(OC)cc3)c3ccc(OC)cc3OC2)cc1 [Compound 28],62 ± 44 µM,> 100 µM,50.7 ± 35 µM,62.4 µM,−85.1%,−50.1%,41.6 µM,49 ± 16 µM,30.5 ± 4 µM,64 ± 74 µM,29.4 ± 4.4 µM,–
Cc1ccc(C2(O)c3ccc(O)cc3OCC2c2ccc(O)cc2)cc1 (stereo not shown) [Compound 10],27.5 µM,40.7 µM,50 µM,60.2 µM,−23.1%,−7.1%,39.7 µM,37.5 ± 0.4 µM,–,–,–,–
Oc1ccc(C2COc3cc(O)ccc3C2(O)c2ccccc2)cc1 (stereo not shown) [Compound 14],61.3 µM,90.2 µM,> 100 µM,> 100 µM,−23.6%,−40.9%,> 100 µM,74 ± 4 µM,> 100 µM,72.8 µM,–,–
"N.N.[Cl][Pt][Cl] [Cisplatin, reference compound]",–,–,–,–,–,–,–,–,–,–,–,"IC50 ([3]; non-transformed neonatal foreskin fibroblasts, read-out: IC50): 9 µM; IC50 ([3]; text says rabbit kidney cells, values are those of the NFF line of Table 1, read-out: degree of toxicity (IC50)): 9.9 µM"
COc1ccc(C2=C(c3ccc(O)cc3)COc3c2ccc(O)c3C)cc1 [Compound 32],17.7 ± 5.9 µM,15.4 µM,35.8 µM,29 ± 2 µM,−71.1%,−34.4%,39.3 ± 7.7 µM,13 ± 0.6 µM,9.2 ± 5.1 µM,12.6 ± 3.7 µM,24.8 ± 3.9 µM,–
Oc1ccc(C2=C(c3ccccc3)c3ccc(O)cc3OC2)cc1 [Compound 30],18 µM,66.6 µM,41 ± 5.3 µM,45.7 µM,−60.7%,−62.6%,43.5 ± 9.2 µM,45 ± 4.9 µM,> 100 µM,33 ± 3 µM,–,–
COc1cccc(C2=C(c3ccc(O)cc3)COc3cc(O)ccc32)c1 [Compound 31],53.4 µM,51.5 ± 12 µM,34.6 µM,94.6 µM,−41.4%,−48.3%,76.3 µM,47 ± 8.4 µM,–,27.2 ± 4.6 µM,> 100 µM,–
